Values joined by “and” are separate entries in the source; they are usually repeats but may differ in a detail not shown here. Identical values can stand only once. Like-named read-outs stand apart in the source and are kept apart here.
Experiments:
Assay type in all cases: cell-based
[1] = tested on: chloroquine sensitive strain of P. falciparum (3D7); assay: In vitro antiplasmodial assay (parasite lactate dehydrogenase, pLDH); conditions: for viability at 20 µM: Plasmodium falciparum, 3D7, 48 h, read-out: % Viability at 20 µM (SD) 3D7
Protocol: An antimalarial evaluation was performed against the chloroquine sensitive strain of P. falciparum (3D7) using the parasite lactate dehydrogenase (pLDH) assay as previously reported. Parasites were seeded at 2% parasitemia and 1% hematocrit in 96 well plates and were incubated with 20 µM of the test compounds for 48 h in culture medium consisting of Rosell Park Memorial Institute (RPMI 1640; Lonza, Basel, Switzerland) containing 25 mM 4-(2-hydroxyethyl)-1-piperazineethanesulfonic acid (HEPES), supplemented with 0.5% (w/v) Albumax II, 22 mM glucose, 0.65 mM hypoxanthine, 0.05mg/mL gentamicin, and 1% (v/v) human erythrocytes, at 37 °C under an atmosphere of 5% CO2, 5% O2, and 90% N2. The parasite lactate dehydrogenase activity in the wells was determined using the colorimetric assay method of Makler et al.. The absorbance readings were converted to % parasite viability relative to the wells containing untreated parasites.
(§1) Thirty-five tetralone derivatives (see Figure 2) and six related benzocycloalkanones (see Figure 3) were evaluated in vitro against T. b. brucei for antitrypanosomal activity through the resazurin assay protocol. The compounds were also evaluated against the chloroquine-sensitive strain (3D7) of P. falciparum for antimalarial activity using pLDH assay and against the HeLa cell line for cytotoxicity evaluation using the resazurin assay protocol.

[2] = tested on: 427 Trypanosoma brucei brucei trypomastigotes; assay: In vitro anti-trypanosomal assay (resazurin); conditions: 48 h; for % Viability at 20 µM (SD) T.b. brucei / viability at 20 µM: 20 µM compound, % parasite viability relative to untreated control; for viability at 20 µM: read-out: % Viability at 20 µM (SD) T.b. brucei; for IC50: three-fold serial dilutions from 100 µM, read-out: IC50 (µM) T. b. brucei
Protocol: The activity of the compounds against 427 Trypanosoma brucei brucei trypomastigotes was determined as previously described. Briefly, parasites were incubated in 96-well plates with 20 µM or three-fold serial dilutions (100 µM starting concentration) of test compounds in Iscove’s modified Dulbecco’s medium (IMDM) (Lonza, Basel, Switzerland) supplemented with 10% fetal calf serum, HMI-9 supplement, hypoxanthine, and penicillin/streptomycin at 37 °C in a 5% CO2 incubator. After 48 h, 20 µL of resazurin reagent (0.135 mg/mL resazurin in phosphate-buffered saline) was added to each well and the fluorescence (Ex560/Em590) read after 2–4 h in a Spectramax M3 plate reader (Molecular Devices, San Jose, CA, USA). The fluorescence readings were used to calculate % parasite viability relative to the readings obtained from the wells containing untreated control parasite cultures. The IC50 values were determined by plotting % viability vs. log(compound) and performing a non-linear regression using a GraphPad Prism (v. 5.02) (San Diego, CA, USA).
as §1

[3] = tested on: HeLa cells; assay: In vitro cytotoxicity assay (resazurin)
Protocol: (§2) As previously described, HeLa cells (Cellonex, Johannesburg, South Africa) were seeded in 96-well plates at a density of 2 × 10^4 cells/well in Dulbecco’s modified Eagle’s medium (DMEM) (Lonza, Basel, Switzerland) supplemented with 10% fetal calf serum and antibiotics (penicillin/streptomycin/amphotericin B) and incubated overnight at 37 °C in a 5% CO2 incubator. Compounds were added to the cells at a final concentration of 20 µM, and incubation continued for 24 h. The cell viability in the wells was assessed by adding 20 µL of resazurin reagent (0.135 mg/mL resazurin in phosphate-buffered saline) and reading the fluorescence (Ex560/Em590) after an additional 2–4 h incubation. The fluorescence readings were converted to % cell viability relative to the average readings obtained from the untreated control wells.
as §1

[4] = In vitro cytotoxicity assay (resazurin); conditions: human, HeLa cells; 20 µM compound, 24 h, % cell viability relative to untreated control; read-out: % Viability at 20 µM (SD) HeLa Cell
Protocol: as §2, §1

[5] = 20 µM compound, 24 h, % cell viability relative to untreated control
[6] = 20 µM compound, 48 h, P. falciparum 3D7, % parasite viability relative to untreated parasites

Compound | % Viability at 20 µM (SD) 3D7 ([1]; 20 µM) | % Viability at 20 µM (SD) T.b. brucei [2] | % Viability at 20 µM (SD) HeLa Cell [3, 5] | further results
O=C1/C(=C/c2cccc(Cl)c2)CCc2ccccc21 [Compound 17] | 100 (9) % | 0.2 (0.3) % | 41 (13) % | –
O=C1/C(=C/c2ccc(Cl)cc2)Cc2ccccc21 [Compound 36] | 93 (3) % | – | 74 (10) % | % Viability at 20 µM (SD) T.b. brucei ([2]; 20 µM): 99 (0.1) %
O=C1/C(=C/c2ccc(F)cc2)CCc2ccc(O)cc21 [Compound 12] | – | – | – | viability at 20 µM ([2]; Trypanosoma brucei): -0.6%; IC50 ([2]; Trypanosoma brucei): 0.6 µM; IC50 [2]: 0.68 µM; viability at 24 h, 20 µM [4]: 29%
COc1ccc2c(c1)C(=O)/C(=C/c1cccnc1Cl)CC2 [Compound 34] | 113 (6) % | 98 (2) % | 47 (1.7) % | –
COc1ccc2c(c1)C(=O)/C(=C/C1CCCC1)CC2 [Compound 27] | – | – | – | viability at 20 µM [1, 6]: 81%; viability at 20 µM ([2]; Trypanosoma brucei): < 1%; IC50 ([2]; Trypanosoma brucei): 5.4 µM; viability at 24 h, 20 µM [4]: 85%
O=C1/C(=C/c2ccc(Cl)cc2)CCc2ccccc21 [Compound 24] | 100 (8) % | 26 (8) % | 100 (3) % | –
CN(C)c1ccc(/C=C2\CCc3ccc(O)cc3C2=O)cc1 [Compound 21] | 142 (9) % | 25 (2) % | 51 (4) % | –
O=C1/C(=C/c2ccccc2)CCc2ccccc21 [Compound 3] | – | 43 (3) % | – | % Viability at 20 µM (SD) 3D7 [1, 6]: 103 (2) %; % Viability at 20 µM (SD) HeLa Cell ([3]; 20 µM): 116 (5) %
O=C1/C(=C/c2cccc(F)c2)CCc2ccccc21 [Compound 6] | – | – | – | viability at 20 µM [1, 6]: 131%; viability at 20 µM ([2]; Trypanosoma brucei): 0.5%; IC50 ([2]; Trypanosoma brucei): 3.1 µM; viability at 24 h, 20 µM [4]: 121%
COc1ccc2c(c1)C(=O)/C(=C/c1ccc[nH]1)CC2 [Compound 29] | 115 (5) % | 103 (1) % | 97 (5) % | –
O=C1/C(=C/c2ccc(Cl)cc2)CCCc2ccccc21 [Compound 37] | 113 (0.6) % | – | 53 (10) % | % Viability at 20 µM (SD) T.b. brucei ([2]; 20 µM): 0.3 (0.3) %
COc1ccc(/C=C2\CCc3ccccc3C2=O)cc1 [Compound 4] | – | – | – | viability at 20 µM [1, 6]: 100%; viability at 20 µM ([2]; Trypanosoma brucei): 0.5%; IC50 ([2]; Trypanosoma brucei): 6.7 µM; viability at 24 h, 20 µM [4]: 76%
N#Cc1cccc(/C=C2\CCc3ccc(N)cc3C2=O)c1 [Compound 2] | 110 (1) % | 95 (3) % | 77 (2) % | –
O=C1/C(=C/c2cccc(Cl)c2)CCc2ccc(O)cc21 [Compound 15] | −3 (6) % | 0.6 (0.01) % | 18 (0.4) % | –
Nc1ccc2c(c1)CC/C(=C\c1ccccc1)C2=O [Compound 11] | 111 (1) % | – | 86 (9) % | % Viability at 20 µM (SD) T.b. brucei ([2]; 20 µM): 95% and 97 (0.3) %
COc1ccc2c(c1)C(=O)/C(=C/c1ccccc1)CC2 [Compound 10] | – | – | – | viability at 20 µM [1, 6]: 113%; IC50 ([2]; Trypanosoma brucei): 1.04 µM; viability at 24 h, 20 µM [4]: 65%
O=C1/C(=C/c2ccccc2)CCc2c(O)cccc21 [Compound 8] | – | 0.5 (0.1) % | 35 (1) % | –
O=C1/C(=C/c2ccc(F)cc2)CCc2ccccc21 [Compound 5] | 107 (5) % | – | 100 (2) % | –

Compound | % Viability at 20 µM (SD) 3D7 ([1]; 20 µM) | % Viability at 20 µM (SD) T.b. brucei [2] | % Viability at 20 µM (SD) HeLa Cell [3, 5] | further results
COc1ccc2c(c1)C(=O)/C(=C/c1cccs1)CC2 [Compound 30] | 107 (6) % | 32 (9) % | 106 (2) % | –
COc1ccc2c(c1)C(=O)/C(=C/c1cccnc1)CC2 [Compound 31] | 85 (12) % | – | 17 (4) % | –
O=C1/C(=C/c2ccc(Cl)cc2)CCc2ccc(O)cc21 [Compound 14] | – | 0.1 (0.1) % | 27 (2) % | –
O=C1/C(=C/c2ccc(O)cc2)CCc2ccc(O)cc21 [Compound 19] | 104 (12) % | 1 (0.2) % | 44 (4) % | –
N=C(N)c1ccc(OCCCCCOc2ccc(C(=N)N)cc2)cc1 [PE, pentamidine, reference compound] | – | – | – | IC50 ([2]; Trypanosoma brucei): 0.0042 µM
O=C1/C(=C/c2ccc(Br)cc2)CCc2ccc(O)cc21 [Compound 16] | – | – | – | viability at 20 µM [1, 6]: 43%; viability at 20 µM ([2]; Trypanosoma brucei): 0.1%; IC50 ([2]; Trypanosoma brucei): 1.24 µM; viability at 24 h, 20 µM [4]: 62%
COc1ccc2c(c1)C(=O)/C(=C/c1ccccn1)CC2 [Compound 33] | 7 (8) % | −0.4 (0.2) % | 20 (0.6) % | –
COc1ccc2c(c1)C(=O)/C(=C/C1CCCCC1)CC2 [Compound 26] | – | – | – | viability at 20 µM [1, 6]: 119%; viability at 20 µM ([2]; Trypanosoma brucei): < 1%; viability at 24 h, 20 µM [4]: 92%
COc1ccc(/C=C2\CCc3ccc(O)cc3C2=O)cc1 [Compound 23] | 88 (10) % | 0.2 (0.1) % | 25 (2) % | –
O=c1c(Cc2ccc(Cl)cc2)coc2ccccc12 [Compound 40] | 90 (6) % | – | 103 (3) % | % Viability at 20 µM (SD) T.b. brucei ([2]; 20 µM): 94 (7) %
O=C1/C(=C/c2ccc(Cl)c(Cl)c2)CCc2ccc(O)cc21 [Compound 22] | 81 (1) % | 0.9 (0.2) % | 5 (0.9) % | –
O=C1/C(=C/c2ccc(Cl)cc2)CSc2ccccc21 [Compound 39] | 11 (0.9) % | – | 8 (2) % | % Viability at 20 µM (SD) T.b. brucei ([2]; 20 µM): 0.3 (0.3) %
O=C1/C(=C/c2cccnc2)CCc2ccccc21 [Compound 25] | 29 (12) % | −0.7 (0.4) % | 24 (0.4) % | –
O=C1/C(=C/c2cccc(F)c2)CCc2ccc(O)cc21 [Compound 13] | 13 (1) % | −0.9 (0.1) % | 21 (1) % | –
COc1ccc2c(c1)C(=O)/C(=C/c1ccco1)CC2 [Compound 28] | 100 (3) % | 31 (5) % | 97 (9) % | –
O=c1c(Cc2ccc(Cl)cc2)csc2ccccc12 [Compound 41] | 107 (5) % | – | 109 (7) % | % Viability at 20 µM (SD) T.b. brucei ([2]; 20 µM): 103 (0.3) %
O=C1/C(=C/c2cccc(Br)c2)CCc2ccc(O)cc21 [Compound 18] | 99 (8) % | 1.2 (0.31) % | 26 (3) % | –
O=C1/C(=C/c2ccccc2)CCc2ccc(O)cc21 [Compound 9] | 101 (4) % | −4 (0.3) % | 9 (0.1) % | –

— publication PMC6572618, “Anti-Trypanosomal and Antimalarial Properties of Tetralone Derivatives and Structurally Related Benzocycloalkanones” (Medicina, 2019)
